In PubChem BioAssay (NCI) one finds GI50 and TGI data, which are given here for 8 compounds.

Each structure is given as a SMILES string. Several values for one entry are separate records, joined by “and”; a condition that tells them apart may be missing. Equal entries are not always repeated.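 Five compound concentrations were applied to cells in 96-well plates for 48 hours; endpoints were derived by simple linear interpolation of the resulting dose-response curve. GI50 is the concentration that inhibits growth by half. TGI marks complete inhibition of growth.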

Test systems include HL-60(TB) leukemia; SN12C renal; ACHN renal; IGROV1 ovarian; UACC-257 melanoma; RPMI-8226 leukemia; UACC-62 melanoma; M14 melanoma; UO-31 renal; T-47D breast.
Holding throughout (experiment): growth of human tumour cells (NCI), 48 h

In the case of `CN1CCN(Cc2ccc(NC(=O)c3cncc(C#Cc4c(N)ncc5ccc(C#N)cc45)c3)cc2C(F)(F)F)CC1`, the GI50 in the experiment on HL-60(TB) leukemia is 1400 nM; in the experiment with SN12C renal it was 2970 nM; with ACHN renal it was 717 nM; in the experiment on IGROV1 ovarian, 816 nM; in the experiment on UACC-257 melanoma it was 483 nM; with RPMI-8226 leukemia, 1010 nM. The GI50 in the experiment with UACC-62 melanoma was 668 nM; with M14 melanoma it was 66.8 nM; in the experiment on UO-31 renal it was 971 nM; in the experiment on T-47D breast, 1230 nM. The TGI in the experiment on HL-60(TB) leukemia came to 50000 nM; with SN12C renal, 7350 nM; in the experiment on ACHN renal, 1390 nM; with IGROV1 ovarian, 1990 nM; in the experiment on UACC-257 melanoma it was 1780 nM; with RPMI-8226 leukemia it was 2470 nM. The TGI stood at 1420 nM in the experiment on UACC-62 melanoma, 729 nM with M14 melanoma, 1730 nM in the experiment with UO-31 renal and 5850 nM with T-47D breast.

For `CC1CCCC(C(=O)CC2CC(=O)NC(=O)C2)C1=O` (stereo not drawn), the TGI in the experiment with HL-60(TB) leukemia, in the experiment with SN12C renal, with ACHN renal, in the experiment with IGROV1 ovarian, in the experiment on UACC-257 melanoma and in the experiment with RPMI-8226 leukemia was > 100000 nM each time. The TGI with UACC-62 melanoma, in the experiment on M14 melanoma, in the experiment with UO-31 renal and in the experiment with T-47D breast was > 100000 nM in each case.

For the compound `Oc1cc(N2CC2)c(O)cc1N1CC1`, the GI50 was 238 nM in the experiment on HL-60(TB) leukemia; 586 nM in the experiment with SN12C renal; 219 nM in the experiment with ACHN renal; 794 nM in the experiment with IGROV1 ovarian; 851 nM in the experiment with UACC-257 melanoma; 1530 nM with RPMI-8226 leukemia. Also, the GI50 in the experiment on UACC-62 melanoma was 918 nM; in the experiment with M14 melanoma, 511 nM; in the experiment on UO-31 renal it was 164 nM; in the experiment with T-47D breast, 1100 nM. Besides, the TGI in the experiment on HL-60(TB) leukemia was found to be 2140 nM; in the experiment with SN12C renal it was 5070 nM; in the experiment with ACHN renal it was 590 nM; in the experiment on IGROV1 ovarian it was 3600 nM; with UACC-257 melanoma it was 2980 nM; with RPMI-8226 leukemia, 9740 nM. Moreover, the TGI with UACC-62 melanoma amounted to 2910 nM; with M14 melanoma, 1930 nM; in the experiment with UO-31 renal, 818 nM; with T-47D breast, 6480 nM.

Take `O=C(CN1CCN(Cc2ccccc2Cl)CC1)NC1CC(=O)c2c(Br)sc(Br)c21` (stereo not drawn): the GI50 was 23300 nM in the experiment with HL-60(TB) leukemia; 19100 nM with SN12C renal; 35100 nM with ACHN renal; 18200 nM in the experiment with IGROV1 ovarian; 22300 nM with UACC-257 melanoma; 16600 nM in the experiment with RPMI-8226 leukemia. In addition, the GI50 in the experiment with UACC-62 melanoma was 16300 nM; in the experiment with M14 melanoma, 17200 nM; in the experiment with UO-31 renal, 17400 nM; with T-47D breast, 21600 nM. Further, the TGI in the experiment with HL-60(TB) leukemia is 57400 nM; with SN12C renal it was 35900 nM; with ACHN renal it was > 100000 nM; in the experiment with IGROV1 ovarian it was 34500 nM; with UACC-257 melanoma, 44000 nM; in the experiment on RPMI-8226 leukemia, 38500 nM. Besides, the TGI came out at 31000 nM in the experiment on UACC-62 melanoma, 31700 nM with M14 melanoma, 31800 nM in the experiment on UO-31 renal and 43900 nM with T-47D breast.

On to `C[C@@H](N)COc1ccc(-c2cnc3ccc(N[C@H](C)c4cccc(F)c4)nn23)cc1`, for which the GI50 in the experiment on HL-60(TB) leukemia was 1810 nM; in the experiment on SN12C renal, 2020 nM; in the experiment on ACHN renal, 2150 nM; with IGROV1 ovarian, 2180 nM; in the experiment with UACC-257 melanoma, 1620 nM; with RPMI-8226 leukemia, 1810 nM. The GI50 is 1970 nM in the experiment on UACC-62 melanoma, 1490 nM with M14 melanoma, 1940 nM with UO-31 renal and 1500 nM with T-47D breast. Further, the TGI with HL-60(TB) leukemia came out at 3740 nM; in the experiment on SN12C renal it was 10400 nM; in the experiment on ACHN renal, 6350 nM; in the experiment on IGROV1 ovarian, 6230 nM; in the experiment with UACC-257 melanoma it was 3110 nM; in the experiment with RPMI-8226 leukemia, 5300 nM. Moreover, the TGI was determined as 4740 nM in the experiment on UACC-62 melanoma, 3000 nM with M14 melanoma, 7810 nM in the experiment on UO-31 renal and 3350 nM in the experiment with T-47D breast.

Take `NC(=O)c1cccc2c(N[C@H](CN3CCC3)c3ccc(Cl)c(C(F)(F)F)c3)ncnc12`: the GI50 is 2130 nM in the experiment with HL-60(TB) leukemia; 2110 nM with SN12C renal; 1380 nM with ACHN renal; 98.9 nM in the experiment with IGROV1 ovarian; 1220 nM in the experiment on UACC-257 melanoma; 2690 nM with RPMI-8226 leukemia. The GI50 in the experiment with UACC-62 melanoma is 1130 nM; with M14 melanoma it was 1470 nM; in the experiment with UO-31 renal, 306 nM; in the experiment on T-47D breast, 101 nM. Also, the TGI turned out to be 5640 nM in the experiment with HL-60(TB) leukemia; 13900 nM in the experiment on SN12C renal; 13500 nM in the experiment on ACHN renal; 2630 nM with IGROV1 ovarian; 5270 nM in the experiment with UACC-257 melanoma; 9060 nM in the experiment with RPMI-8226 leukemia. In addition, the TGI in the experiment with UACC-62 melanoma was 8620 nM; with M14 melanoma it was 3690 nM; in the experiment with UO-31 renal, 4910 nM; in the experiment on T-47D breast, 2470 nM.

For `CS(=O)(=O)CCNCc1ccc(-c2ccc3ncnc(Nc4ccc(OCc5cccc(F)c5)c(Cl)c4)c3c2)o1`, the TGI in the experiment with HL-60(TB) leukemia was > 10000 nM and > 100000 nM and 23600 nM; with SN12C renal, > 10000 nM and > 100000 nM and 36200 nM; in the experiment on ACHN renal, > 10000 nM and > 100000 nM and 54400 nM; with IGROV1 ovarian it was > 10000 nM and 26100 nM; in the experiment with UACC-257 melanoma it was > 10000 nM and 3750 nM and 6520 nM; in the experiment on RPMI-8226 leukemia it was > 10000 nM and > 29400 nM and 7050 nM. In addition, the TGI was > 10000 nM and > 100000 nM and 23100 nM in the experiment on UACC-62 melanoma; > 10000 nM and > 20200 nM and 12200 nM with M14 melanoma; > 10000 nM and > 33000 nM and 26200 nM with UO-31 renal; > 10000 nM and > 100000 nM and 37600 nM in the experiment with T-47D breast. The GI50 is > 10000 nM and 9100 nM in the experiment with SN12C renal; 539 nM and 435 nM and 323 nM in the experiment on ACHN renal; 2020 nM and 338 nM and 387 nM in the experiment with IGROV1 ovarian; > 10000 nM and 1970 nM and 3100 nM with UACC-257 melanoma; 3540 nM and 2820 nM and 1580 nM in the experiment on RPMI-8226 leukemia; > 10000 nM and 6680 nM and 9220 nM in the experiment on UACC-62 melanoma. The GI50 in the experiment with M14 melanoma was 8600 nM and 2560 nM and 4220 nM; in the experiment on UO-31 renal it was 2390 nM and 807 nM and 1080 nM.

As for `COc1cc(-c2cc3ncccc3c3nc(OCCN(C)C)c4cccnc4c23)cc(OC)c1OC`, the GI50 with HL-60(TB) leukemia was 1250 nM; in the experiment with SN12C renal, 581 nM; in the experiment on ACHN renal, 281 nM; with IGROV1 ovarian, 466 nM; in the experiment with UACC-257 melanoma, 567 nM; in the experiment on RPMI-8226 leukemia it was 372 nM. For the same compound, the GI50 in the experiment with UACC-62 melanoma was 420 nM; in the experiment on M14 melanoma it was 485 nM; in the experiment with UO-31 renal, 280 nM; in the experiment on T-47D breast, 769 nM. For the same compound, the TGI with HL-60(TB) leukemia came out at 4730 nM; in the experiment with SN12C renal, 3090 nM; with ACHN renal, 1540 nM; with IGROV1 ovarian, 1990 nM; in the experiment with UACC-257 melanoma, 4060 nM; in the experiment with RPMI-8226 leukemia, 2790 nM. Also, the TGI in the experiment on UACC-62 melanoma stood at 2450 nM; with M14 melanoma it was 10400 nM; in the experiment on UO-31 renal, 1320 nM; with T-47D breast, 37000 nM.
